Where a SMILES comes first, the peptide text is derived from it. [ ]: non-standard residue; d: D form. Phe(3-Me) = Cc1cccc(C[C@H](N)C(=O)O)c1
Each compound was assayed against interaction between GST-MAGEA11 MHD and FAM-PCF11_4 peptide (MAGE-A11:PCF11) (Homo sapiens (Human), UniProt P43364) (assay: TR-FRET dose response competition assay for disruption of MAGE-A11:PCF11 binding). Conditions: Dose response TR-FRET screening of nine scaffold groups against MAGE-A11:PCF11; read-out: consensus IC50.
Summary of the method: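 Competition TR-FRET at room temperature in 50 mM Tris pH 7.5, 20 mM MgCl2, 0.1 mg/ml BSA, 1 mM DTT: final 5 nM GST-MAGEA11 MHD, 5 nM Tb-anti-GST, 200 nM FAM-PCF11_4, 90 min. Ratio 520/490 nm converted to % inhibition; IC50 from sigmoidal fit.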

Chain of interaction between GST-MAGEA11 MHD and FAM-PCF11_4 peptide (MAGE-A11:PCF11) (P43364 218-429): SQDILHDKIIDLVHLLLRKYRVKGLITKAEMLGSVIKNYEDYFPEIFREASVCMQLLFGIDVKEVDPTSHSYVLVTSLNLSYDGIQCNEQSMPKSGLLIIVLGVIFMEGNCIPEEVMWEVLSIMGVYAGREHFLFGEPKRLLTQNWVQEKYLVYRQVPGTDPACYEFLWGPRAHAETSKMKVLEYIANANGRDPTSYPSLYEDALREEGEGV

Compound	IC50 [µM]
Cn1c2ccccc2c2cc(C(=O)NCC3CCC4(CCN(Cc5ccccn5)CC4)O3)ccc21 (stereo not drawn) [SJ000308489-1]	69.9
Clc1ccc2c(NCCCNCc3ccc(-c4ccccc4)cc3)ccnc2c1 [SJ000523064-1]	34.9
C=CCSc1nc2cc(-c3ccccc3)sc2c(=O)n1CCN1CCOCC1 [SJ000453564-1]	69.9
O=C1OCC(c2ccc(OC(F)F)cc2)=C1c1ccc([N+](=O)[O-])cc1 [SJ000368145-1]	40.8
CCCn1c(-c2cccc(F)c2)nc2c1c(=O)[nH]c(=O)n2Cc1ccccc1 [SJ000382299-1]	69.9
COc1ccccc1Oc1ccc2c(NCCCNCc3cccc4c3OCO4)ccnc2c1 [SJ000311212-1]	69.9
COc1ccc(F)cc1CNCCCNc1ccnc2cc(Oc3ccc(C(C)(C)C)cc3)ccc12 [SJ000311237-1]	6.29
Fc1cccc(C(F)(F)F)c1CNCCCNc1ccnc2cc(Cl)ccc12 [SJ000521031-1]	69.9
COc1ccc(CN2C(=O)c3ccccc3NC2c2ccc(F)cc2)cc1 (stereo not drawn) [SJ000510740-1]	69.9
Nc1nc(Nc2ccc(O)cc2)nc2ccccc12 [SJ000045622-1]	69.9
COc1cc(-c2nc3c(c(=O)[nH]c(=O)n3Cc3ccccc3)n2C)ccc1O [SJ000430813-1]	69.9
COc1cccc(CNCCCNc2ccnc3cc(Oc4ccccc4)ccc23)c1O [SJ000311207-1]	69.9
COCCn1c(-c2ccc(SC)cc2)nc2c1c(=O)[nH]c(=O)n2CC(C)C [SJ000378917-1]	69.9
COc1cccc(-c2nc(S(=O)(=O)c3ccc(Cl)cc3)c(N3CCOCC3)o2)c1 [SJ000038124-1]	7.43
CC(=O)N(C1=C(Cl)C(=O)c2ccccc2C1=O)c1ccc(C(=O)O)cc1 [SJ000024935-1]	69.9
CN(C)c1ccc(CNCCCNc2ccnc3cc(Cl)ccc23)c2ccccc12 [SJ000523054-1]	69.9
COc1ccc2cc(C3Nc4ccccc4C(=O)N3CCCN3CCOCC3)ccc2c1 (stereo not drawn) [SJ000803763-1]	67.4
CC(=O)N(C1=C(Cl)C(=O)c2ccccc2C1=O)c1ccc(Cl)cc1 [SJ000296883-2]	69.9
N#CCCn1cnc2cc(-c3ccc(Br)cc3)sc2c1=O [SJ000397713-1]	69.9
O=C1C(Cl)=C(Nc2cccc(C(F)(F)F)c2)C(=O)c2ccccc21 [SJ000024924-2]	69.9
CCCCn1c(=O)[nH]c(=O)c2c1nc(-c1ccc(C)cc1)n2C [SJ000425093-1]	69.9
O=C1c2ccccc2NC(c2ccc(Cl)cc2)N1Cc1ccccc1 (stereo not drawn) [SJ000019547-2]	69.9
CCC(CC)c1ccc2c(NCCCNCc3cc(F)ccc3OC)ccnc2c1 [SJ000311269-1]	43
CCOc1ccc(-c2nc(C#N)c(N3CCOCC3)o2)cc1 [SJ000041896-1]	69.9
NC1=C(Nc2ccc(Cl)cc2)C(=O)c2ccccc2C1=O [SJ000562630-1]	53.8
CCOc1ccc(C2Nc3ccccc3C(=O)N2CCCN2CCOCC2)cc1 (stereo not drawn) [SJ000803759-1]	67.7
Fc1cccc(CNCCCNc2ccnc3cc(C(F)(F)F)ccc23)c1 [SJ000521066-1]	69.9
COc1cccc(CNCCCNc2ccnc3cc(Cc4c(Cl)cccc4Cl)ccc23)c1O [SJ000311315-1]	13.8

Compound	IC50 [µM]
CCn1c2ccccc2c2cc(CNC3CCCCC3)ccc21 [SJ000550865-1]	69.9
C=C1C(Cl)=C(N2CCN(S(=O)(=O)c3ccc(Cl)cc3)CC2)C(=O)c2ccccc21 [SJ000029651-1]	69.9
COc1ccc(F)c(CNCCCNc2ccnc3cc(C(F)(F)F)ccc23)c1 [SJ000521058-1]	69.9
COc1cccc(OCc2cc(C3Nc4ccccc4C(=O)N3Cc3ccccc3)ccc2OC)c1 (stereo not drawn) [SJ000295704-1]	69.9
COc1ccc(C2Nc3ccccc3C(=O)N2Cc2ccccc2)cc1Cn1cc([N+](=O)[O-])cn1 (stereo not drawn) [SJ000288433-1]	69.9
Clc1ccc2c(NCCCNCc3c4ccccc4cc4ccccc34)ccnc2c1 [SJ000361122-2]	69.9
COc1ccc(F)cc1CNCCCNc1ccnc2cc(Oc3ccc(F)cc3)ccc12 [SJ000311225-1]	69.9
FC(F)(F)Oc1cccc(CNCCCNc2ccnc3cc(Cl)ccc23)c1 [SJ000521022-2]	69.9
COc1cc(Cc2ccc3c(NCCCNCc4cccc(OC)c4O)ccnc3c2)cc(OC)c1 [SJ000311311-1]	33.6
C=C(C)CSc1nc2cc(-c3ccccc3)sc2c(=O)n1CCN1CCOCC1 [SJ000456069-1]	0.861
COc1ccc(F)cc1CNCCCNc1ccnc2cc(Oc3cccc(N(C)C)c3)ccc12 [SJ000311233-1]	5.63
O=C1c2ccccc2NC(c2ccc(F)c(F)c2)N1CCCN1CCOCC1 (stereo not drawn) [SJ000803757-1]	58.4
COc1ccc(CNC(=O)Cn2cnc3cc(-c4ccc(OC)cc4)sc3c2=O)cc1 [SJ000441316-1]	69.9
CCCn1c(-c2cccc([N+](=O)[O-])c2)nc2c1c(=O)[nH]c(=O)n2Cc1ccccc1 [SJ000376601-1]	69.9
FC(F)(F)c1ccccc1CNCCCNc1ccnc2cc(Cl)ccc12 [SJ000520908-2]	69.9
CCCN1C(=O)c2ccccc2NC1c1ccccc1F (stereo not drawn) [SJ000288611-1]	69.9
CN(C)CCCNCc1ccc2[nH]c3ccccc3c2c1 [SJ000054243-1]	69.9
CCC(C)(C)NC(=O)Cn1cnc2cc(-c3ccccc3)sc2c1=O [SJ000425613-1]	69.9
CCCCn1c(=O)[nH]c(=O)c2c1nc(-c1ccc(OC(F)(F)C(F)C(F)(F)F)cc1)n2O (stereo not drawn) [SJ000378966-1]	69.9
CN(C)c1cccc(Oc2ccc3c(NCCCNCc4cccc5c4OCO5)ccnc3c2)c1 [SJ000311232-1]	69.9
CCCCn1c(=O)[nH]c(=O)c2c1nc(-c1ccc(CC)c([N+](=O)[O-])c1)n2C [SJ000378868-1]	69.9
COc1ccc(F)c(CNCCCNc2ccnc3cc(Cl)ccc23)c1 [SJ000521030-1]	69.9
CNC1=C(Cl)C(=O)c2ccccc2C1=O [SJ000141461-1]	69.9
COC(=O)c1ccc(CNCCCNc2ccnc3cc(Cl)ccc23)cc1 [SJ000523067-1]	69.9
CN(C)CCCNC(=O)c1ccc2[nH]c3ccccc3c2c1 [SJ000123281-1]	69.9
COc1ccc(F)cc1CNCCCNc1ccnc2cc(Cc3c(Cl)cccc3Cl)ccc12 [SJ000311317-1]	12.2
CCn1c2ccccc2c2cc(CN3CCN(S(C)(=O)=O)CC3)ccc21 [SJ000168261-1]	69.9

Same assay, conditions: PCF11 peptides; read-out: IC50 of PCF11 peptides binding to GST-MAGE-A11 by TR-FRET

Compound	IC50 [µM]
CC[C@H](C)[C@H](NC(=O)[C@H](CCC(N)=O)NC(=O)[C@H](Cc1c[nH]cn1)NC(=O)[C@@H](NC(=O)[C@@H](NC(=O)[C@@H](NC(=O)[C@H](CC(C)C)NC(=O)[C@@H](N)Cc1ccccc1)C(C)C)C(C)C)C(C)C)C(=O)N[C@@H](CCCNC(=N)N)C(=O)N[C@@H](CCC(N)=O)C(=O)N[C@@H](CC(C)C)C(=O)N[C@@H](Cc1cccc(C)c1)C(=O)N[C@@H](CCC(N)=O)C(=O)O [3-methyl-phenylanaline] (H-FLVVVHQIRQL[Phe(3-Me)]Q-OH; N-terminus and C-terminus assumed)	0.0017

Same assay, conditions: Table 5, dose response TR-FRET screening of 59 quinoline compounds against MAGE-A11:PCF11; read-out: TR-FRET IC50

Compound	IC50 [µM]
CCCN(CCCNc1c2ccc(Cl)cc2nc2ccc(OC)cc12)Cc1c(Cl)ccc(Cl)c1Cl [SJ000523021-1]	> 70
Clc1ccc2c(NCCCCN(Cc3ccccc3)Cc3ccc4[nH]ccc4c3)ccnc2c1 [SJ000520434-1]	23.4
CCCN(CCCNc1ccnc2cc(C(F)(F)F)ccc12)Cc1ccc2[nH]ccc2c1 [SJ000575171-1]	33.2
c1coc(CNCCCNc2ccnc3cc(CC4CCCCC4)ccc23)c1 [SJ000311250-1]	54.9
COC1CCC(C(F)(F)F)C1CN(CCCCNc1ccnc2cc(Cl)ccc12)Cc1ccccc1 (stereo not drawn) [SJ000520444-1]	> 70
CCCN(CCCNc1ccnc2cc(C(F)(F)F)ccc12)Cc1ccccc1OC [SJ000523072-1]	> 70
CCCN(CCCNc1ccnc2cc(Cl)ccc12)Cc1c(C)cc(C)cc1C [SJ000522749-1]	> 70
CCCN(CCCNc1ccnc2cc(Cl)ccc12)Cc1cc(C(F)(F)F)ccc1OC [SJ000523012-1]	> 70

Same assay, conditions: Table 8, representative compounds; read-out: TR-FRET IC50

Compound	IC50 [µM]
COc1ccc(CNCCCNc2ccnc3cc(Cl)ccc23)cc1 [SJ000523059]	69.9
COc1cccc(CNCCCNc2ccnc3cc(Cc4cccc(C(F)(F)F)c4)ccc23)c1O [SJ000311299]	27.5
COc1ccc(-c2ccc3c(NCCCNCc4cc(F)ccc4OC)ccnc3c2)cc1 [SJ000311297]	69.9
COc1cc(Cc2ccc3c(NCCCNCc4cccc5c4OCO5)ccnc3c2)cc(OC)c1 [SJ000311312]	31.3
Clc1ccc2c(NCCCNCc3ccc4c(c3)OCO4)ccnc2c1 [SJ000523056]	69.9
FC(F)(F)c1ccc2c(NCCCNCc3cccc4c3OCO4)ccnc2c1 [SJ000521048]	69.9
c1ccc(Cc2ccc3c(NCCCNCc4cccc5c4OCO5)ccnc3c2)cc1 [SJ000311308]	46.1
COc1cccc(CNCCCNc2ccnc3cc(CCc4ccccc4)ccc23)c1O [SJ000311255]	26.6
Clc1cccc(Cl)c1Cc1ccc2c(NCCCNCc3cccc4c3OCO4)ccnc2c1 [SJ000311316]	11
Oc1ccc(Br)cc1CNCCCNc1ccnc2cc(Cl)ccc12 [SJ000311186]	69.9
COc1ccc(Oc2ccc3c(NCCCNCc4cccc5c4OCO5)ccnc3c2)cc1 [SJ000311220]	43.7
CN(C)C1=C2C=CC=CC2C(CNCCCNc2ccnc3cc(Cl)ccc23)C=C1 (stereo not drawn) [SJ000520354]	69.9
COc1ccc(F)cc1CNCCNc1ccnc2cc(-c3ccc4c(c3)OCO4)ccc12 [SJ000311293]	29.9
COc1ccc(F)cc1CNCCCNc1ccnc2cc(-c3cccc4ccccc34)ccc12 [SJ000311277]	10.3

Source: patent publication US20240246941A1, “SUBSTITUTED 4-(3-AMINOPROP-1-YL)AMINOQUINOLINE ANALOGS AS MODULATORS OF MELANOMA-ASSOCIATED ANTIGEN 11 UBIQUITIN LIGASE” (ST. JUDE CHILDREN'S RESEARCH HOSPITAL, INC., priority 2020, published 2024)
